Data published in patent US12595230B2, “Substituted 6,7-dihydro-5H-benzo[7]annulene compounds and their derivatives, processes for their preparation and therapeutic uses thereof” (Sanofi, priority 2020, dated 2026).

Biological target: T1, ERα (Homo sapiens, UniProt P03372)
T1 construct: host or cells: MCF7
T1 sequence (P03372 1-595): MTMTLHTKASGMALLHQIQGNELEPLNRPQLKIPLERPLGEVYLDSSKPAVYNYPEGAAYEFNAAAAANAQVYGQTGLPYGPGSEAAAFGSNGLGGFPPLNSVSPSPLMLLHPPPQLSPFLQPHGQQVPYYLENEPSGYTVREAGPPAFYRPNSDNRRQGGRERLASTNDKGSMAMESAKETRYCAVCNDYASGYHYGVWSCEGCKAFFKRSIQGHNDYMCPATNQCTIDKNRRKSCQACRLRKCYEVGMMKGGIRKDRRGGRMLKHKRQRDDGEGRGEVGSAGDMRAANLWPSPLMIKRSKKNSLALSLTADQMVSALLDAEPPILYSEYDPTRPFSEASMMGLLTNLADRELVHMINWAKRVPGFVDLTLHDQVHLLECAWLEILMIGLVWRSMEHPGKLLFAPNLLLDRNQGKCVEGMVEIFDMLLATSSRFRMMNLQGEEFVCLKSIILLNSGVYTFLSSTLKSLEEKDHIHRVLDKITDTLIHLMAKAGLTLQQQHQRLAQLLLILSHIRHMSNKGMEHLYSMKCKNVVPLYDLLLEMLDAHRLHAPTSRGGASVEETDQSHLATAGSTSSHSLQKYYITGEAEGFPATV
Assay: Estrogen receptor degradation activity: breast cancer cell ERα in cell western assay (MCF7 cells)
Format: cell-based
Settings: for % Degradation At 0.3 μM: 4 hours, relative to fulvestrant 0.1 μM positive control; for DC50: 4 hours post compound addition, concentration which degrades 50% of the estrogen receptor, read-out: Degradation IC50
Method: Test: Estrogen Receptor Degradation Activity Said test involves measuring the in vitro degradation activity of the compounds of the Table 1a. The measurements of the degradation activities were made using a breast cancer cell ERα in cell western assay as described hereunder. MCF7 cells (ATCC) were seeded in 384 wells microplate (collagen coated) at a concentration of 10000 cells/30 μL per well in red phenol free MEM alpha medium (invitrogen) containing 5% charcoal dextran striped FBS. The following day, 9 points serial 1:5 dilution of each compound was added to the cells in 2.5p L at final concentrations ranging from 0.3-0.0000018 μM (in table 2), or 0.1 μM for fulvestrant (using as positive control). At 4 hours post compound addition the cells were fixed by adding 25 μL of formalin (final concentration 5% formalin containing 0.1% triton) for 10 minutes at room temperature and then washed twice with PBS. Then, 50 μL of LI-COR blocking buffer containing 0.1% Triton was added to plate for 30 minutes at room temperature. LI-COR blocking buffer was removed and cells were incubated overnight at cold room with 50 μL anti-ER rabbit monoclonal antibody (Thermo scientific MA1-39540) diluted at 1:1000 in LI-COR blocking buffer containing 0.1% tween-20. Wells which were treated with blocking buffer but no antibody were used as background control. Wells were washed twice with PBS (0.1% tween-20) and incubated at 37° C. for 60 minutes in LI-COR (0.1% tween-20) containing goat anti-rabbit antibody Alexa 488 (1:1000) and Syto-64 a DNA dye (2 μM final concentration). Cells were then washed 3 times in PBS and scanned in ACUMEN explorer (TTP-Labtech). Integrated intensities in the green fluorescence and red fluorescence were measured to determine the levels of ERα and DNA respectively. The degradation activity with respect to estrogen receptors in this test is given by the concentration which degrades 50% of the estrogen receptor (or IC50) in nM. […] DMSO−fulvestrant)).

Compound	% Degradation At 0.3 μM [%]	DC50 [nM]
O=C(O)c1c(F)cc2c(c1F)CCCC(c1ccc(F)cc1Cl)=C2c1ccc(CC2CN(CCCF)C2)cc1 [Example 216, 8-(2-chloro-4-fluorophenyl)-2,4-difluoro-9-(4-((1-(3-fluoropropyl)azetidin-3-yl)methyl)phenyl)-6,7-dihydro-5H-benzo[7]annulene-3-carboxylic acid]	83	13.2
O=C(O)c1ccc2c(c1)SCC(c1ccc(Cl)cc1Cl)=C2c1ccc(CC2CN(CCCF)C2)cc1 [Example 308, 3-(2,4-dichlorophenyl)-4-(4-((1-(3-fluoropropyl)azetidin-3-yl)methyl)phenyl)-2H-thiochromene-7-carboxylic acid]	94	1.4
O=C(O)c1ccc2c(c1)CCCC(c1cccc(Cl)c1F)=C2c1ccc(CC2CN(CCCF)C2)cc1 [Example 32, 8-(3-chloro-2-fluorophenyl)-9-(4-((1-(3-fluoropropyl)azetidin-3-yl)methyl)phenyl)-6,7-dihydro-5H-benzo[7]annulene-3-carboxylic acid]	94	0.6
Cl.O=C(O)c1ccc2c(c1)SCCC(c1ccc(Cl)cc1Cl)=C2c1ccc(CC2CN(CCCF)C2)cc1 [Example 52, 4-(2,4-dichlorophenyl)-5-(4-((1-(3-fluoropropyl)azetidin-3-yl)methyl)phenyl)-2,3-dihydrobenzo[b]thiepine-8-carboxylic acid]	54	255
O=C(O)c1ccc2c(c1)CCCC(c1cccc(CC(F)F)c1)=C2c1ccc(CC2CN(CCCF)C2)cc1 [Example 297, 8-(3-(2,2-difluoroethyl)phenyl)-9-(4-((1-(3-fluoropropyl)azetidin-3-yl)methyl)phenyl)-6,7-dihydro-5H-benzo[7]annulene-3-carboxylic acid]	81	0.7
O=C(O)c1ccc2c(c1)CCCC(c1ccc(Cl)cc1Cl)=C2c1ccc(CC2(F)CN(CCCF)C2)cc1 [Example 46, 8-(2,4-dichlorophenyl)-9-(4-((3-fluoro-1-(3-fluoropropyl)azetidin-3-yl)methyl)phenyl)-6,7-dihydro-5H-benzo[7]annulene-3-carboxylic acid]	88	0.6
O=C(O)c1ccc2c(c1)CCCC(c1ccc(Cl)cc1C(F)(F)F)=C2c1ccc(CC2CN(CCCF)C2)cc1 [Example 27, 8-(4-chloro-2-(trifluoromethyl)phenyl)-9-(4-((1-(3-fluoropropyl)azetidin-3-yl)methyl)phenyl)-6,7-dihydro-5H-benzo[7]annulene-3-carboxylic acid]	94	0.5
Cc1cc(C2=C(c3ccc(CC4CN(CCCF)C4)cc3)c3ccc(C(=O)O)cc3CCC2)cn(C)c1=O [Example 209, 8-(1,5-dimethyl-6-oxo-1,6-dihydropyridin-3-yl)-9-(4-((1-(3-fluoropropyl)azetidin-3-yl)methyl)phenyl)-6,7-dihydro-5H-benzo[7]annulene-3-carboxylic acid]	100	88.7
O=C(O)c1ccc2c(c1)CCCC(c1ccc(Cl)cc1Cl)=C2c1ccc(CC2CN(CCCF)C2)cn1 [Example 253, 8-(2,4-dichlorophenyl)-9-(5-((1-(3-fluoropropyl)azetidin-3-yl)methyl)pyridin-2-yl)-6,7-dihydro-5H-benzo[7]annulene-3-carboxylic Acid]	89	4
O=C(O)c1c(F)cc2c(c1F)CCCC(c1ccccc1Cl)=C2c1ccc(CC2CN(CCCF)C2)cc1 [Example 224]	82	43
COc1ncc(C2=C(c3ccc(CC4CN(CCCF)C4)cc3)c3ccc(C(=O)O)cc3CCC2)cc1C(F)(F)F [Example 306, 9-(4-((1-(3-fluoropropyl)azetidin-3-yl)methyl)phenyl)-8-(6-methoxy-5-(trifluoromethyl)pyridin-3-yl)-6,7-dihydro-5H-benzo[7]annulene-3-carboxylic acid]	82	25.8
Cl.O=C(O)c1ccc2c(c1)CCCC(c1ccc(C(F)(F)F)cc1)=C2c1ccc(CC2CN(CCCF)C2)cc1 [Example 318, 9-(4-((1-(3-fluoropropyl)azetidin-3-yl)methyl)phenyl)-8-(4-(trifluoromethyl)phenyl)-6,7-dihydro-5H-benzo[7]annulene-3-carboxylic acid hydrochloride]	94	0.6
O=C(O)c1ccc2c(c1)CCCC(c1ccccc1Cl)=C2c1ccc(CC2CN(CCCF)C2)cn1 [Example 252, 8-(2-chlorophenyl)-9-(5-((1-(3-fluoropropyl)azetidin-3-yl)methyl)pyridin-2-yl)-6,7-dihydro-5H-benzo[7]annulene-3-carboxylic Acid]	67	48.6

The remaining compounds from weak to strong by DC50, led by results:

% Degradation At 0.3 μM [%]	DC50 [nM]	Compound
90	0.5	O=C(O)c1ccc2c(c1)CCCC(c1ccc(Cl)cc1Cl)=C2c1ccc(C(F)C2CN(CCCF)C2)cc1 (single isomer, unassigned) [Example 44, 8-(2,4-dichlorophenyl)-9-(4-(fluoro(1-(3-fluoropropyl)azetidin-3-yl)methyl)phenyl)-6,7-dihydro-5H-benzo[7]annulene-3-carboxylic acid]
94	0.4	COc1ccc(C2=C(c3ccc(CC4CN(CCCF)C4)cc3)c3ccc(C(=O)O)cc3CCC2)c(F)c1 [Example 16, 8-(2-fluoro-4-methoxyphenyl)-9-(4-((1-(3-fluoropropyl)azetidin-3-yl)methyl)phenyl)-6,7-dihydro-5H-benzo[7]annulene-3-carboxylic acid]
93	0.4	Cl.O=C(O)c1ccc2c(c1)CCCC(c1ccc(Cl)cc1F)=C2c1ccc(CC2CN(CCCF)C2)cc1 [Example 12, 8-(4-chloro-2-fluorophenyl)-9-(4-((1-(3-fluoropropyl)azetidin-3-yl)methyl)phenyl)-6,7-dihydro-5H-benzo[7]annulene-3-carboxylic acid]
67	0.3	Cl.O=C(O)c1ccc2c(c1)CCCC(c1ccc(Cl)cc1Cl)=C2c1ccc(C2(C3CN(CCCF)C3)CC2)cc1 [Example 215, 8-(2,4-dichlorophenyl)-9-(4-(1-(1-(3-fluoropropyl)azetidin-3-yl)cyclopropyl)phenyl)-6,7-dihydro-5H-benzo[7]annulene-3-carboxylic acid hydrochloride]
86	0.3	O=C(O)c1ccc2c(c1)CCCC(c1cccc(Cl)c1C(F)(F)F)=C2c1ccc(CC2CN(CCC(F)F)C2)cc1 [Example 280, 8-(3-chloro-2-(trifluoromethyl)phenyl)-9-(4-((1-(3,3-difluoropropyl)azetidin-3-yl)methyl)phenyl)-6,7-dihydro-5H-benzo[7]annulene-3-carboxylic acid]
87	0.3	O=C(O)c1ccc2c(c1)CCCC(c1c(F)cccc1Cl)=C2c1ccc(CC2CN(CCCF)C2)cc1 [Example 220, 8-(2-chloro-6-fluorophenyl)-9-(4-((1-(3-fluoropropyl)azetidin-3-yl)methyl)phenyl)-6,7-dihydro-5H-benzo[7]annulene-3-carboxylic acid]
91	0.3	CC1CCc2cc(C(=O)O)ccc2C(c2ccc(CC3CN(CCCF)C3)cc2)=C1c1ccc(F)cc1C(F)(F)F (racemic) [Example 312, 8-(4-fluoro-2-(trifluoromethyl)phenyl)-9-(4-((1-(3-fluoropropyl)azetidin-3-yl)methyl)phenyl)-7-methyl-6,7-dihydro-5H-benzo[7]annulene-3-carboxylic acid]
